Results: US20200000755A1, “TREATMENT OF INFLAMMATORY DISORDERS IN NON-HUMAN MAMMALS” (THE REGENTS OF THE UNIVERSITY OF CALIFORNIA, priority 2012, published 2020)

Key:
[1] = target: T1, Canine sEH (Canis lupus familiaris, UniProt A0A8I3NJL8); test: sEH inhibitor screen of canine sEH; assay type: biochemical
T1 sequence (A0A8I3NJL8 1-556): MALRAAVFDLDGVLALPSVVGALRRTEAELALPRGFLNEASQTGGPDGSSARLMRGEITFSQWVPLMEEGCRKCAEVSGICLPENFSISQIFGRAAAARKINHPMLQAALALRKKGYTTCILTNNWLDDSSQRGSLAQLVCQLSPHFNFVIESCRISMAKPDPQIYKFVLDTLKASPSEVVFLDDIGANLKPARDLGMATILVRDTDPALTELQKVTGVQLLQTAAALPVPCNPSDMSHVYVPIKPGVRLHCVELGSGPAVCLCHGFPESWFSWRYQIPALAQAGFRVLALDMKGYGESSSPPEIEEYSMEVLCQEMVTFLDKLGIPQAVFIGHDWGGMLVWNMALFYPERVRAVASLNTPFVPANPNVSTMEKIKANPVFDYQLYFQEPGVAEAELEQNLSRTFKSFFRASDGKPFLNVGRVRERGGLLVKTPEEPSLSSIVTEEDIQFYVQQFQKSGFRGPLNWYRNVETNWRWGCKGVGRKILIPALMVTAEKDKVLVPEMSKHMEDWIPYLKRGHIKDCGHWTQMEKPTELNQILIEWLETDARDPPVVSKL

[2] = target: T2, sEH (Homo sapiens, UniProt P34913); test: Activity as inhibitor of sEH (general statements); assay type: biochemical
T2 sequence (P34913 1-555): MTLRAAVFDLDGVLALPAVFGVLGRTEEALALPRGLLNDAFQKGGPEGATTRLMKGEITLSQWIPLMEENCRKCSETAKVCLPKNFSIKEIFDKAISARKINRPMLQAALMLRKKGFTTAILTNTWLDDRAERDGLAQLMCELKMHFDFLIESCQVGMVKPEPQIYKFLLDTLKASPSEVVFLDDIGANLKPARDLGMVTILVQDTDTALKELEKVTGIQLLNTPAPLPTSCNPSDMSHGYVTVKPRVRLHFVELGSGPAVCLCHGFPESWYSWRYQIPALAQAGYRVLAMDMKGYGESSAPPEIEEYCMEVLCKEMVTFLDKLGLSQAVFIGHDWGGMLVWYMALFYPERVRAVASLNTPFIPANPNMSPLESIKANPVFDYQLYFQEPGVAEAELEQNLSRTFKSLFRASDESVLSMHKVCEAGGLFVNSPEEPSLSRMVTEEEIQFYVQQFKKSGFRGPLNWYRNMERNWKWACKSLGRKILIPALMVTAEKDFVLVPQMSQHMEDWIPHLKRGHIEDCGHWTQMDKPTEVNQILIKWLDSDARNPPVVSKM
Source text: Derivatives of urea are transition state mimetics that form a preferred group of sEH inhibitors. […] Any particular urea derivative or other compound can be easily tested for its ability to inhibit sEH by standard assays, such as those discussed herein. The production and testing of urea and carbamate derivatives as sEH inhibitors is set forth in detail in, for example, Morisseau et al., Proc Natl Acad Sci (USA) 96:8849-8854 (1999).
One category of these inhibitors comprises inhibitors that mimic the substrate for the enzyme. The lipid alkoxides (e.g., the 9-methoxide of stearic acid) are an exemplar of this group of inhibitors.

[3] = target: Sheep sEH (Ovis aries, UniProt A0ACI6PZ20); test: sEH inhibitor screen of domestic animals, radioactive assay, liver cytosolic preparation; assay type: biochemical
Sheep sEH, sequence (A0ACI6PZ20 entry or part of it): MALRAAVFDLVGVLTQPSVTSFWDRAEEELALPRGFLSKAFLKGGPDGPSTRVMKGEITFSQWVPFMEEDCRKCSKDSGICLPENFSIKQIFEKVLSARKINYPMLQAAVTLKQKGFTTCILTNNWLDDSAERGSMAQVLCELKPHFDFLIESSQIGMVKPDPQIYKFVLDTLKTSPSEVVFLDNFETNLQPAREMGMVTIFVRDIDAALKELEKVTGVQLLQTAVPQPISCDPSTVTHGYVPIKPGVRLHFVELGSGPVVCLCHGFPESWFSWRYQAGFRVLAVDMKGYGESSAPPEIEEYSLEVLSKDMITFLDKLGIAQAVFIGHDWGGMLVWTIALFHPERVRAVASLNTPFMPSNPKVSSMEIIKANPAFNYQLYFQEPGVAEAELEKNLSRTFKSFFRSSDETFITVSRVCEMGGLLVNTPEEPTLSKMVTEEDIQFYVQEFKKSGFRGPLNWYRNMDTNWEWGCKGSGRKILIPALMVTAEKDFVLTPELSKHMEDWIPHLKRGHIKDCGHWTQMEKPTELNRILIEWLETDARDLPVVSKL

[4] = test system: COX-1 and COX-2; details: cited from earlier work
[5] = Thoroughbred, horse, in vivo, iv, 0.1 mg/kg
[6] = horse, in vivo, iv, 0.1 mg/kg, 5 days
[7] = Plasma concentrations and pharmacokinetics in the laminitic horse; details: phenylbutazone 3-4 mg/kg BID PO, gabapentin 20 mg/kg BID PO

O=C(Nc1ccc(OC(F)(F)F)cc1)N[C@H]1CC[C@H](Oc2ccc(-c3nnn[nH]3)cc2)CC1 [compound 2806, 1-(trans-4-(4-(1H-tetrazol-5-yl)-phenoxy)-cyclohexyl)-3-(4-(trifluoromethoxy)-phenyl)-urea]
IC50 [1]: < 1 nM

CCCCCCCCCCCCNC(=O)NC12CC3CC(CC(C3)C1)C2 [ADU, N-Adamantyl-N′-dodecyl urea]
activity on sEH [2]: particularly high activity on sEH

CCS(=O)(=O)N1CCC(NC(=O)Nc2ccc(OC(F)(F)F)cc2)CC1 [compound 2213, 1-(1-ethylsulfonyl-piperidin-4-yl)-3-(4-trifluoromethoxy-phenyl)-urea]
IC50 [3]: 33 nM

O=C(Nc1ccc(OC(F)(F)F)cc1)NC1CCN(C(=O)C2CC2)CC1 [compound 2214, 1-(1-(cyclopropanecarbonyl)piperidin-4-yl)-3-(4-(trifluoromethoxy)phenyl)urea]
IC50 [3]: 18 nM

CC(=O)Oc1ccccc1C(=O)O [Aspirin]
COX-2 (IC50)/COX-1 (IC50) ratio [4]: 0.32

Cc1oc(=O)oc1COC(=O)c1ccc(O[C@H]2CC[C@H](NC(=O)Nc3ccc(OC(F)(F)F)cc3)CC2)cc1 [compound 2796, (5-methyl-2-oxo-1,3-dioxol-4-yl)methyl 4-((1r,4r)-4-(3-(4-(trifluoromethoxy)-phenyl)-ureido)-cyclohexyloxy)-benzoate]
IC50 [1]: 38 nM

CS(=O)(=O)N1CCC(NC(=O)Nc2ccc(OC(F)(F)F)cc2)CC1 [compound 1709, 1-(1-methylsulfonyl-piperidin-4-yl)-3-(4-trifluoromethoxy-phenyl)-urea]
IC50 [3]: 30 nM

O=C(Nc1ccc(OC(F)(F)F)cc1)Nc1ccc(Oc2ccc(C(=O)O)cc2)cc1F [compound 2807, 4-(3-fluoro-4-(3-(4-(trifluoromethoxy)-phenyl)-ureido)-phenoxy)-benzoic acid]
IC50 [1]: 14 nM

O=C(Nc1ccccc1F)N[C@H]1CC[C@H](Oc2ccc(C(=O)O)cc2)CC1 [compound 2736, 4-(trans-4-(3-(2-fluorophenyl)-ureido)-cyclohexyloxy)-benzoic acid]
IC50 [1]: 39 nM

O=C(Nc1ccc(Oc2ccc(C(=O)O)cc2)cc1)Nc1ccc(OC(F)(F)F)cc1 [compound 2803, 4-(4-(3-(4-(trifluoromethoxy)-phenyl)-ureido)-phenoxy)-benzoic acid]
IC50 [1]: 42 nM

O=C(Nc1ccc(OC(F)(F)F)cc1)N[C@H]1CC[C@H](Oc2ccc(C(=O)O)cc2)CC1 [compound 1728, trans-4-{4-[3-(4-Trifluoromethoxy-phenyl)-ureido]-cyclohexyloxy}-benzoic acid]
daily plasma concentration, peak (did not reach) [5]: < 2.5 µM
daily plasma concentration, trough (fell below on one occasion in the first day) [5]: below 30 nM
adverse effects in clinical exams and blood work [6]: No adverse effects were observed

CS(=O)(=O)NC(=O)c1ccc(O[C@H]2CC[C@H](NC(=O)Nc3ccc(OC(F)(F)F)cc3)CC2)cc1 [compound 2728, N-(methylsulfonyl)-4-(trans-4-(3-(4-trifluoromethoxy-phenyl)-ureido)-cyclohexyloxy)-benzamide]
IC50 [1]: 100 nM

COc1ccc2c(c1)c(CC(=O)O)c(C)n2C(=O)c1ccc(Cl)cc1 [indomethacin]
COX-2 (IC50)/COX-1 (IC50) ratio [4]: 33

NCC1(CC(=O)O)CCCCC1 [gabapentin]
highest measured plasma concentration [7]: 18 µM

O=C(Nc1ccc(OC(F)F)cc1)N[C@H]1CC[C@H](Oc2ccc(C(=O)O)cc2)CC1 [compound 2805, 4-(trans-4-(3-(4-(difluoromethoxy)-phenyl)-ureido)-cyclohexyloxy)-benzoic acid]
IC50 [1]: 19 nM
